Structures are written as SMILES. Converted amounts (≈) assume the structure as drawn. Where two headings read alike, the source gives them in different places.

The text below walks through data of PMC9633773, “Discovering cell-active BCL6 inhibitors: effectively combining biochemical HTS with multiple biophysical techniques, X-ray crystallography and cell-based assays” (Scientific Reports, 2022).

Data set [1] concerns the target T1, BCL6 BTB domain (Homo sapiens, UniProt P41182).
T1 construct: the tag was removed by HRV-3C protease treatment, generating a simpler BCL6 5–129 product; Thioredoxin (N, cleaved yes); 6His (N, cleaved yes); made in house; host or cells: E. coli BL21-AI
In words: Fluorescence polarisation (FP) competition assay with BCOR-AF633 peptide. Type of data set: biochemical. The note with it: repurchased hits. The procedure: A modified BCOR peptide containing a C-terminal cysteine, labelled with Alexa Fluor (AF)633 C5 maleimide ([…]-Cys(AF633)-amide) was obtained from Cambridge Research Biochemical. For high throughput screening, the assay was miniaturized from 10 µL in Perkin Elmer 384-well black Proxi Plus plates to 4 µL in Labcyte 1536-well black low dead volume LP-0410 plates. Each complete reaction (a modified version from[9],[17]) contained 20 mM Hepes/NaOH pH 8.0, 150 mM NaCl, 0.5 mM tris(2-carboxyethyl)phosphine (TCEP), 0.05% (v/v) Tween 20, 10 nM BCOR-AF633 peptide, 3 µM BCL6 BTB and 1–2% (v/v) DMSO. At this protein concentration, we recorded a FP signal of 80 to 90 mP, corresponding to about 55% BCOR-AF633 bound to the BCL6 BTB domain. Compounds and control BCOR peptide were dispensed using an Echo550 acoustic dispenser (Beckman Coulter). Protein and peptide reagents were added using a Multidrop combi (Thermo Scientific) or a Tempest v2 (Formulatrix). After 2 h incubation at room temperature, plates were read on an Envision plate reader (Perkin Elmer) with excitation and emission wavelengths of 620 nm and 688 nm, respectively, or Pherastar FSX (BMG Labtech) with FP filters module 590-50/675-50/675-50. […] As a low signal control, we used either the maximal inhibition by BCOR in the HTS campaign, or the signal obtained from the probe in the absence of BCL6 for IC50 determination. IC50 values were calculated using a sigmoidal dose–response (variable slope) four- parameter equation. Beside the FP measurement, the total fluorescence intensity (TFI) was recorded to allow identification of interfering compounds (TFI > 110% control)[26].
For orientation: In fluorescence polarisation assays a small probe gives low polarisation when free and higher when bound to something large.

For data set [2], the target named is T2, BCL6 BTB (Homo sapiens, UniProt P41182).
T2 construct: the tag was removed by HRV-3C protease treatment, generating a simpler BCL6 5–129 product; Thioredoxin (N, cleaved yes); 6His (N, cleaved yes); made in house; host or cells: E. coli BL21-AI
In words: 19F ligand-observed NMR TFA-WVIP-NH2 peptide displacement assay. Type of data set: binding. As for the experimental part:
Each 180 µL ^19F-NMR peptide displacement assay contained 20 mM HEPES buffer pH 8, 100 mM NaCl, 0.5 mM TCEP, 10% D2O, 200 µM reporter TFA-WVIP-NH2, with or without 200 µM compound (4% D6-DMSO final) and 6 µM BCL6 BTB. Each 180 µL sample reaction was prepared in a 96-well plate and 170 µL transferred to a 3 mm NMR tube (Bruker, Part No. Z112272) using a Gilson liquid handler GX-281. NMR data were collected on a Bruker […] 500 MHz spectrometer equipped with a 5 mm BBFO probe. Data were acquired and processed using Bruker Topsin 2.1. The recovery of the reporter NMR signal upon addition of compound indicates competitive binding at the same site as the TFA-WVIP-NH2 tetrapeptide on the protein. We quantified the extent of recovery of NMR signal in % of reporter displacement[42]: \% displacement=Ireporter(+protein+compound)-Ireporter(+protein)/Ireporter(-protein)-Ireporter(+protein)X100\%

The target in another data set is T3, Trx-6His-BCL6 BTB (Homo sapiens, UniProt P41182).
T3 construct: made in house; host or cells: E. coli BL21-AI
In words: TR-FRET assay, Trx-6His-BCL6 BTB / BCOR-A633 peptide. The class given is biochemical. As for the experimental part:
Each 15 µL TR-FRET reaction in 384-well black Proxiplate (Perkin Elmer) contained 1 or 10 nM Trx-6His-BCL6 BTB, 300 nM BCOR-A633 and 0.5 or 1 nM anti-6His-Terbium cryptate (Perkin Elmer), in the FP assay buffer (25 mM Hepes pH 8, 100 mM NaCl, 0.05% (v/v) Tween20, 0.5 mM TCEP), supplemented with 0.05% (w/v) bovine serum albumin. Test compounds in DMSO or DMSO alone were added to the wells using and Echo 550 acoustic dispenser to give the appropriate test concentration in 0.7% v/v DMSO final. After a 2 h incubation at room temperature, the plates were read on an Envision plate reader or a Pherastar FSX plate reader with 337 nm laser excitation, a first emission filter at 665 nm and a second emission filter at 615 or 620 nm. Data were normalised and IC50 determined as described above for the FP assay.
(TR-FRET usually uses a lanthanide donor and a delayed reading to cut background.)

The next data set is described as follows: NMR kinetic solubility. Type of data set: physicochemical. The note with it: 500 µM final compound concentration, 20 mM HEPES buffer pH 8, 2% or 5% DMSO. The procedure:
(§1) Solubility measurements by quantitative ^1H-NMR or HPLC method were performed as described previously.

Data set [3] addresses T1, BCL6 BTB domain. Put plainly: Surface plasmon resonance (SPR).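 Also: Fail means no measurable KD from unsaturated curves poor sensorgrams or non-1:1 stoichiometry.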 Type of data set: binding. The note with it: immobilised BCL6 BTB, pH 6.0, 1:1 equilibrium model. As for the experimental part:
All surface plasmon resonance (SPR) experiments were carried out on a Biacore T200 (Cytiva) and amine coupling chemistry was used to immobilise the protein on a research grade CM5 sensor chip. The running buffer consisted of 100 mM sodium acetate, 100 mM sodium chloride, and 1 mM TCEP at pH 6.0. The chip’s surface was activated for 10 min using a 1:1 mixture of 100 mM N-hydroxysuccinimide and 400 mM 1-ethyl-3-(3-dimethylaminopropyl)-carbodiimide. BCL6 BTB protein was injected for 20 min at a concentration of 100 µg/mL in a 10 mM sodium acetate buffer (pH 5.5). Finally, the surface was blocked via an injection of 1 M ethanolamine pH 8.5 for 7 min. The flow rate was maintained at 10 µL/min for all the above procedures and ~ 10,000 response units (RU) of BCL6 was immobilised on the chip. Flow cell one was left unmodified as the reference surface.
Following protein immobilisation, the running buffer was changed to 100 mM sodium acetate, 100 mM sodium chloride, 1 mM TCEP, 0.05% Tween20 (v/v), 5% DMSO at pH 6.0.
All compound handling was performed on an ECHO 550 acoustic liquid dispenser and compounds were added to 384-well polypropylene V-bottomed plates (Greiner), which became the sample plates for the SPR. […] The flow rate was 30 µL/min, the injection time for the samples was 60 s, and the dissociation time was 60 s. The surface was not regenerated between sample injections. KD values were calculated from the Langmuir plot under equilibrium conditions using the 1:1 binding model in the Biacore software version 2 (Cytiva).
Background: SPR reads the build-up and loss of mass on a sensor chip optically.

The target of data set [4] is T2, BCL6 BTB. Put plainly: Thermal shift assay (TSA). Type of data set: binding. The note with it: measured at 200 and 400 µM compound; binder if ≥ 1 °C. As for the experimental part:
Thermal shift assays were performed in 4titude FrameStar (Part No. 4ti-0385) 384 well skirted PCR plates: each well contained 10 µL of sodium acetate pH 6 buffer, 100 mM NaCl, 0.5 mM TCEP, 10 µM BCL6 BTB and 20 × Sypro Orange dye (Life Technologies), with or without inhibitor compound (100–400 µM) at 4% (v/v) final DMSO concentration. Plates were heated on a Biorad CFX384 real time thermocycler with a temperature gradient from 10 to 95 °C with a 0.5 °C increment, 0.15 s/cycle. Data were processed using Vortex (Dotmatics): a shift of the BCL6 BTB melting temperature (ΔTm) of + 1 °C or more was classed as indicative of BCL6 compound binding.

A short description of data set [5]: PAMPA passive permeability. The class given is in vitro ADME. More on the design: PAMPA pH7.4: unit not given here. As to conditions: pH 7.4. As for the experimental part: Passive diffusion permeability was measured using a parallel artificial membrane permeability assay (PAMPA). The assay used an artificial membrane consisting of 2% (v/v) phosphatidyl choline in dodecane (Sigma Aldrich, Dorset, UK). The donor plate was a MultiScreen-IP Plate with a 0.45 µm hydrophobe Immobilon-P membrane (Millipore, UK) and the acceptor plate was a MultiScreen 96-well transport receiver plate (Millipore, UK). The permeability of test compound (10 µM) was measured at pH 7.4 in buffer containing 1% (w/v) Bovine Serum Albumin (Sigma Aldrich, Dorset, UK) following a 16 h incubation at 30 °C. After transfer and centrifugation, sample supernatants were diluted and analysed using a Waters (Milford, MA, US) TQ-S LC-MS/MS system. Permeability values (cm/s) were calculated using the following equation, where VD and VA are the volumes of donor and acceptor, respectively, and area is the surface area of the membrane x porosity: Papp=C x ln1-Drugacceptor/Drugequilibrium,whereC=VDxVA/VD+VAx area x time

Another data set is described as follows: Caco-2 efflux ratio. Type of data set: in vitro ADME. The note with it: human.
A further data set can be described thus: HPLC aqueous solubility. The note with it: aqueous buffer, kinetic from dmso stock; PBS buffer pH 7.4, 1% DMSO, maximum targeted concentration 100 µM; read-out: HPLC Sol. Type of data set: physicochemical. The procedure:
as §1

Data set [6] deals with T4, full-length BCL6/SMRT protein–protein interaction in HEK293T cells (Homo sapiens, UniProt P41182).
T4 construct: DNA encoding full length BCL6 and SMRT was inserted into pFC32K NanoLuc and pFC14K HaloTag vectors; expressed in transfected cells; host or cells: HEK293T
Put plainly: NanoBRET cellular assay. Type of data set: cell-based.

For data set [7], the target named is T5, ePL-tagged BCL6 BTB in HEK293T cells (Homo sapiens, UniProt P41182).
T5 construct: BCL6 BTB domain (HDSD51 plasmid construct encoding amino-acids 14–135) fused to a C-terminal ePL tag; expressed in transfected cells; host or cells: HEK293T
Put plainly: InCELL Hunter cellular target engagement assay. Type of data set: cell-based. The procedure: BCL6 cellular target engagement assays were established using the InCELL Hunter™ Target Engagement Kit from DiscoverX-Eurofin. For the assay, the expressed protein comprised the N-terminal truncated region of BCL6 BTB domain (HDSD51 plasmid construct encoding amino-acids 14–135) fused to a C-terminal ePL tag (enhanced ProLabel, DiscoverX). Constructs were transfected over 24 h in HEK293T cells using Lipofectamine 3000 (ThermoFisher Scientific) and 2.5 × 10^5 transfected cells / well in phenol red-free OptiMEM medium (ThermoFisher Scientific) were re-plated in 384 assay plates before treating with compounds for 6 h. To complete the assay, cells were incubated for 30 min at room temperature with the InCell Hunter assay reagents mix following the manufacturer’s instructions, before reading the chemiluminescent signal on an Envision (Perkin Elmer) plate reader.

Where [8] appears, read: 1 or 10 nM Trx-6His-BCL6 BTB, read-out: TR-FRET IC50.

On to `N#Cc1c(NCc2ccccc2)ccnc1Cl` [Compound 21], for which the “FP pIC50 Mean” value at BCL6 BTB domain [1] turned out to be 3.92. Moreover, the half-maximal inhibitory concentration (IC50) stood at 120 µM at BCL6 BTB domain [1] (up to 2 mM, n=1-6, read-out: FP IC50 Geometric Mean) and 70 µM on Trx-6His-BCL6 BTB (setting [8]). Also, the “19F LO-NMR, % peptide displaced” value at BCL6 BTB [2] (200 µM compound, 200 µM TFA-WVIP-NH2, 6 µM BCL6 BTB, mean ± SD, n=2, hit if ≥ 30%) was 63 ± 7%. The “Displacement of BCL6-bound TFA-WVIP-NH2 peptide (recovery of fluorine signal)” value at BCL6 BTB [2] (Figure 3A, qualitative) is given as “able to displace”. The “Sol. (NMR kinetic solubility)” value in the data set “NMR kinetic solubility” amounted to 72 µM. The equilibrium dissociation constant (Kd) on BCL6 BTB domain [3] was 81 µM. For the same compound, on BCL6 BTB [4], the “TSA Tm (thermal shift)” value is 1-2 ºC.
With `CC(C)OC(=O)c1cc(Nc2ccc3c(c2)CC(=O)N3C)n2nccc2n1` [Compound 25, isopropyl 7-((1-methyl-2-oxoindolin-5-yl)amino)pyrazolo[1,5-a]pyrimidine-5-carboxylate], in data set [5] (PAMPA, read-out: PAMPA passive cell permeability), the Papp at 16 h, 10 µM was found to be 110 ×10⁻⁶ cm/s. Further, the half-maximal inhibitory concentration (IC50) at Trx-6His-BCL6 BTB (setting [8]) was 2.1 ± 0.1 µM. Also, the efflux ratio in “Caco-2 efflux ratio” is 0.72.
`CNC(=O)c1cc(Nc2ccc3c(c2)n(CCC(C)(C)O)c(=O)n3C)c(C#N)c(Cl)n1` [Compound 27]: the “PAMPA pH7.4” value in data set [5] came to 19. Besides, the solubility kinetic in the data set “HPLC aqueous solubility” came to 80 µM (≈ 35.4 µg/mL). Moreover, the IC50 at Trx-6His-BCL6 BTB (1 nM BCL6 BTB domain, geometric mean n=3–5, read-out: TR-FRET Geo Mean IC50) amounted to 0.5 µM; in data set [6] (BCL6.NanoLuc/SMRT.HaloTag configuration, HEK293T, 6 h, geometric mean n=3–4, read-out: Nano BRET Geo Mean IC50), 2.93 µM; in [6] (Figure 7B, C-terminally NanoLuc tagged BCL6 / SMRT.HaloTag, read-out: NanoBRET IC50, BCL6.NanoLuc) it was 3 µM. Further, in [6] (BCL6 N-terminally fused to HaloTag), the “NanoBRET inhibition, HaloTag.BCL6/NanoLuc.SMRT combination” value is “only very weak inhibition”. For the same compound, the 50% effective concentration (EC50) in data set [7] (Figure 6B, ePL-tagged BCL6 BTB 14–135, 6 h, n=3, read-out: InCELL Hunter EC50) is 24 ± 9 µM; in [7] (Table S3, C-terminally ePL-tagged BCL6 BTB 14-135, 6 hours, read-out: InCELL Geomean EC50), 23.7 µM.

A word on the IC50: it is the midpoint of a concentration-inhibition curve. What is called Kd is a measure of binding affinity in units of concentration. In general, efflux ratio refers to the permeability from basolateral to apical divided by that in the opposite direction, in the common usage. As usually defined, the EC50 is the concentration needed to bring the measured effect to its halfway point.
